Data on 2 compounds can be found in patent US20080112992A1, “METHOD FOR CONTROLLING THE APPLICATION OF AN INSECTICIDE AND COMPOSITION THEREOF” (FLIT.S.A., priority 2001, published 2008).

The data set in a line: Colour change time after spraying on surfaces and drying in air. It counts as physicochemical. As to the method:
This composition of a pH of about 7.0 and of a yellow colour was applied by spraying to various kinds of surfaces, such as wood, painted wood, painted walls, ceramic tile, plastic (polyethylene), glass and stainless steel.
After about 40 minutes of exposure to air (including carbon dioxide), the composition was dried and the yellow colour disappeared.
Other levels of 4-nitrophenol were tested, and it was shown that with 0.05 wt % the yellow colour was somewhat faint but with a shorter colour changing time (about 25 min.), whereas with highest content, i.e. 0.5 resp. 1.0%, the colour change takes more time, i.e. 70 resp. 120 min.
Phenolphthalein was also tested at levels of 0.01 to 1.0 wt %, which all gave acceptable results and a colour change of about 40 min. The pH of the composition was initially adjusted to 9.4 using triethanolamine.

`O=[N+]([O-])c1ccc(O)cc1` [4-nitrophenol]: the colour changing time entry (0.05 wt % 4-nitrophenol in the composition, yellow colour somewhat faint) was “about 25 min”. The colour change time (0.5 % 4-nitrophenol in the composition) is 70 min and the colour change time (1.0 % 4-nitrophenol in the composition) turned out to be 120 min.
On to `O=C1OC(c2ccc(O)cc2)(c2ccc(O)cc2)c2ccccc21` [Phenolphthalein, phenolphthalein], for which the colour change time result (phenolphthalein at 0.01 to 1.0 wt %, pH initially adjusted to 9.4 using triethanolamine) is listed as “about 40 min”.
